Experiment [1] relates to reactive oxygen species (ROS) in DHER14 cells. Nature of the experiment: Inhibition of ROS production, fluorescent dye DHDCF. The format is cell-based. As to the method: FIG. 3 represents cellular ROS levels as determined using a fluorescence assay in the presence of CB, NOXi and NAC antioxidants.
The concentration of reactive oxygen species (ROS) in DHER14 cells following administration of antioxidants was determined using the ROS sensitive fluorescent dye DHDCF (fluoresceine derivative). […] The efficacy of CB in reducing ROS was about ˜50 fold better then these two known antioxidants.

The subject of experiment [2] is JNK (c-Jun NH2-terminal kinase). The conditions noted are these: DHER14 cells exposed to cisplatin (CDDP, 30 μM).
Method: (§1) In order to show the efficacy of CB against a stimulant that activates oxidative stress, an inhibition assay of both JNK (c-Jun NH2-terminal kinase) and p38 enzymes in tissue culture was performed.
(§2) NIH3T3 cells overexpressing EGF receptor (DHER14 cells) (55) were exposed to cisplatin (CDDP, 30 μM) which activates specific enzymes involved in apoptosis including JNK and p38.
(§3) Two known antioxidants were used as positive controls, NOXi (at 300 and 1000 μM) and NAC (NAC) (at 1000 μM).
The next experiment has as its system p38. The following applies: DHER14 cells exposed to cisplatin (CDDP, 30 μM).
Where [3] appears, read: 20 μM, detected by specific antibodies.

Method for p38: as §1, §2, §3

Consider `CC(=O)N[C@@H](CS)C(=O)O` [NAC, N-acetyl cysteine, reference compound], for which, in experiment [1] (1000 μM), the “efficiency in reducing ROS compared with CB at 20 μM” value was “as efficient as”. Also, the “efficacy against JNK phosphorylation compared with CB at 20 μM” value in experiment [2] (1 mM) is “similar”. Besides, the “efficacy against p38 phosphorylation compared with CB at 20 μM” value in the experiment with p38 (1 mM) is listed as “similar”.
With “N-Acetyl Cysteine-Glycine-Proline-Cysteine-Amid [CB]”, the ROS level result in experiment [1] (20 μM) is given as “reduction of ROS below normal levels was prominent”. For the same compound, the “efficacy in reducing ROS relative to NOXi and NAC” value in experiment [1] (CB 20 μM versus 1000 μM NAC or 1000 μM NOXi) was about 50 fold. Besides, in experiment [2] (setting [3]), the “phosphorylated JNK” value is “not detected at all”. In addition, the “phosphorylated form of JNK” value in experiment [2] (increasing concentrations) was “dramatic reduction”. The “phosphorylated p38” value in the experiment on p38 (setting [3]) is listed as “not detected at all”. Besides, the “phosphorylated form of p38” value in the experiment with p38 (increasing concentrations) was “dramatic reduction”.

For the origin of these results see US8530407B2, “Multi-component antioxidant compounds, pharmaceutical compositions containing same and their use for reducing or preventing oxidative stress” (Yissum Research Development Company of the Hebrew …, priority 2000, dated 2013).
